*1 amine or outer side, *2 acyl side, *3 side chain or, on linkers, in order; H or OH if unused. Where a SMILES comes first, the peptide text is derived from it. Bridges are numbered along the chain shown (N, C = ends). Roman numbers before positions name the chains, in order. Side-chain parts run from the residue outwards. [ ]: non-standard residue; d: D form. The star is where a group is joined. C18 diacid = O=C(O)CCCCCCCCCCCCCCCCC(=O)*; γGlu = O=C(O)[C@H](CCC(=O)[*:2])N[*:1]; Desaminohistidyl = O=C(CCc1c[nH]cn1)*; AEEA = NCCOCCOCC(=O)O; Aib = CC(C)(N)C(=O)O

T1 sequence (P43220 24-463): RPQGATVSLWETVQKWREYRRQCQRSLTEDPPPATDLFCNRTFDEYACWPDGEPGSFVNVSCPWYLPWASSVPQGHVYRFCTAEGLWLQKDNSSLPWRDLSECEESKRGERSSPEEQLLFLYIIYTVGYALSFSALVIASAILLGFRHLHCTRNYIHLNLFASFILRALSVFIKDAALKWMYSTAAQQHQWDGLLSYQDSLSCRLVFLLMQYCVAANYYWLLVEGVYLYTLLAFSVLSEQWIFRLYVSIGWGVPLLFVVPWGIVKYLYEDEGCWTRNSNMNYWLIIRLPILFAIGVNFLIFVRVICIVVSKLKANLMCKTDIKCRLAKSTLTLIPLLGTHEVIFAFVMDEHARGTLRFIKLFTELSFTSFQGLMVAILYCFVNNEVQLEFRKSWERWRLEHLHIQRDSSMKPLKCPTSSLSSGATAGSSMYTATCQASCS

This assay has as its target T1, human GLP-1 receptor (Homo sapiens, UniProt P43220).
T1 construct: expressed in transfected cells; host or cells: membranes of BHK cells, parent line BHKTS13, clone FCW467-12A
The assay is described as follows: Assay (II)(a): GLP-1 receptor binding, [125I]GLP-1 displacement, SPA on BHK membranes. Particulars: displacement of [125I]GLP-1, membranes with human GLP-1 receptor; read-out: IC50 GLP-1R. The gist of the method: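 Membranes from BHK cells expressing human GLP-1 receptor with WGA SPA beads, [125I]GLP-1(7-36)NH2 (480 pM added solution) and compound in HEPES pH 7.4 buffer with EGTA, MgCl2, Tween 20. Incubated 2 h at 30° C; SPA counts fitted by non-linear regression to IC50 in nM.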
The IC50 is the concentration that inhibits the measured activity by half. For the molecule `CC[C@H](C)[C@H](NC(=O)[C@H](Cc1ccccc1)NC(=O)[C@H](CCC(=O)O)NC(=O)[C@H](CCCNC(=N)N)NC(=O)[C@H](C)NC(=O)[C@H](C)NC(=O)[C@H](CCC(N)=O)NC(=O)[C@H](CCC(=O)O)NC(=O)[C@H](CCC(=O)O)NC(=O)[C@H](CC(C)C)NC(=O)[C@H](Cc1ccc(O)cc1)NC(=O)[C@H](CCCCN)NC(=O)[C@H](CO)NC(=O)[C@@H](NC(=O)[C@H](CC(=O)O)NC(=O)[C@H](CO)NC(=O)[C@@H](NC(=O)[C@H](Cc1ccccc1)NC(=O)[C@@H](NC(=O)CNC(=O)[C@H](Cc1c[nH]cn1)NC(=O)C(C)(C)NC(=O)CCc1c[nH]cn1)[C@@H](C)O)[C@@H](C)O)C(C)C)C(=O)N[C@@H](C)C(=O)N[C@@H](Cc1c[nH]c2ccccc12)C(=O)N[C@@H](CC(C)C)C(=O)N[C@@H](CC(C)C)C(=O)N[C@@H](CCCCNC(=O)CNC(=O)[C@H](CO)NC(=O)[C@H](CCC(=O)O)NC(=O)CNC(=O)[C@H](CO)NC(=O)CC[C@H](NC(=O)CC[C@H](NC(=O)CCCCCCCCCCCCCCCCC(=O)O)C(=O)O)C(=O)O)C(=O)N[C@H](C(N)=O)[C@@H](C)O` [Example 3, N^ε34-[2-[[(2S)-2-[[(2S)-4-carboxy-2-[[2-[[(2S)-2-[[(4S)-4-carboxy-4-[[(4S)-4-carboxy-4-(17-carboxyheptadecanoylamino)butanoyl]amino]butanoyl]amino]-3-hydroxypropanoyl]amino]acetyl]amino]butanoyl]amino]-3-hydroxypropanoyl]amino]acetyl]-[Imp7,Aib8,His9,Lys18,Glu22,Arg26,Leu33,Thr35]-GLP-1-(7-35)-peptide amide] (I: Desaminohistidyl-[Aib]HGTFTSDVSKYLEEQAAREFIAWLLKT-NH2 / II: {C18 diacid-γGlu-γGlu}-SGESG; amide I:27-II:C), the IC50 is 0.4 nM.

For `CC[C@H](C)[C@H](NC(=O)[C@H](Cc1ccccc1)NC(=O)[C@H](CCC(=O)O)NC(=O)[C@H](CCCNC(=N)N)NC(=O)[C@H](C)NC(=O)[C@H](C)NC(=O)[C@H](CCC(N)=O)NC(=O)[C@H](CCC(=O)O)NC(=O)[C@H](CCC(=O)O)NC(=O)[C@H](CC(C)C)NC(=O)[C@H](Cc1ccc(O)cc1)NC(=O)[C@H](CCCCN)NC(=O)[C@H](CO)NC(=O)[C@@H](NC(=O)[C@H](CC(=O)O)NC(=O)[C@H](CO)NC(=O)[C@@H](NC(=O)[C@H](Cc1ccccc1)NC(=O)[C@@H](NC(=O)CNC(=O)[C@H](Cc1c[nH]cn1)NC(=O)C(C)(C)NC(=O)CCc1c[nH]cn1)[C@@H](C)O)[C@@H](C)O)C(C)C)C(=O)N[C@@H](C)C(=O)N[C@@H](Cc1c[nH]c2ccccc12)C(=O)N[C@@H](CC(C)C)C(=O)N[C@@H](CC(C)C)C(=O)N[C@@H](CCCCNC(=O)CNC(=O)[C@H](CO)NC(=O)CC[C@H](NC(=O)CC[C@H](NC(=O)CCCCCCCCCCCCCCCCC(=O)O)C(=O)O)C(=O)O)C(=O)N[C@H](C(N)=O)[C@@H](C)O` [Example 4, N^ε34-[2-[[(2S)-2-[[(4S)-4-carboxy-4-[[(4S)-4-carboxy-4-(17-carboxyheptadecanoylamino)butanoyl]amino]butanoyl]amino]-3-hydroxypropanoyl]amino]acetyl]-[Imp7,Aib8,His9,Lys18,Glu22,Arg26,Leu33,Thr35]-GLP-1-(7-35)-peptide amide] (Desaminohistidyl-[Aib]HGTFTSDVSKYLEEQAAREFIAWLLK([Gly-Ser-γGlu-γGlu-C18 diacid])T-NH2), the IC50 worked out at 0.2 nM.

Consider `CC[C@H](C)[C@H](NC(=O)[C@H](Cc1ccccc1)NC(=O)[C@H](CCC(=O)O)NC(=O)[C@H](CCCNC(=N)N)NC(=O)[C@H](C)NC(=O)[C@H](C)NC(=O)[C@H](CCC(N)=O)NC(=O)[C@H](CCC(=O)O)NC(=O)[C@H](CCC(=O)O)NC(=O)[C@H](CC(C)C)NC(=O)[C@H](Cc1ccc(O)cc1)NC(=O)[C@H](CCCCN)NC(=O)[C@H](CO)NC(=O)[C@@H](NC(=O)[C@H](CC(=O)O)NC(=O)[C@H](CO)NC(=O)[C@@H](NC(=O)[C@H](Cc1ccccc1)NC(=O)[C@@H](NC(=O)CNC(=O)[C@H](Cc1c[nH]cn1)NC(=O)C(C)(C)NC(=O)CCc1c[nH]cn1)[C@@H](C)O)[C@@H](C)O)C(C)C)C(=O)N[C@@H](C)C(=O)N[C@@H](Cc1c[nH]c2ccccc12)C(=O)N[C@@H](CC(C)C)C(=O)N[C@@H](CC(C)C)C(=O)N[C@@H](CCCCNC(=O)COCCOCCNC(=O)COCCOCCNC(=O)CC[C@H](NC(=O)CC[C@H](NC(=O)CCCCCCCCCCCCCCCCC(=O)O)C(=O)O)C(=O)O)C(=O)N[C@H](C(N)=O)[C@@H](C)O` [Example 5, N^ε34-[2-[2-[2-[[2-[2-[2-[[(4S)-4-carboxy-4-[[(4S)-4-carboxy-4-(17-carboxyheptadecanoylamino)butanoyl]amino]butanoyl]amino]ethoxy]ethoxy]acetyl]amino]ethoxy]ethoxy]acetyl]-[Imp7,Aib8,His9,Lys18,Glu22,Arg26,Leu33,Thr35]-GLP-1-(7-35)-peptide amide] (Desaminohistidyl-[Aib]HGTFTSDVSKYLEEQAAREFIAWLLK([AEEA-AEEA-γGlu-γGlu-C18 diacid])T-NH2), for which the IC50 was found to be 0.5 nM.

With `CC[C@H](C)[C@H](NC(=O)[C@H](Cc1ccccc1)NC(=O)[C@H](CCC(=O)O)NC(=O)[C@H](CCCNC(=N)N)NC(=O)[C@H](C)NC(=O)[C@H](C)NC(=O)[C@H](CCC(N)=O)NC(=O)[C@H](CCC(=O)O)NC(=O)[C@H](CCC(=O)O)NC(=O)[C@H](CC(C)C)NC(=O)[C@H](Cc1ccc(O)cc1)NC(=O)[C@H](CCCCN)NC(=O)[C@H](CO)NC(=O)[C@@H](NC(=O)[C@H](CC(=O)O)NC(=O)[C@H](CO)NC(=O)[C@@H](NC(=O)[C@H](Cc1ccccc1)NC(=O)[C@@H](NC(=O)CNC(=O)[C@H](Cc1c[nH]cn1)NC(=O)C(C)(C)NC(=O)CCc1c[nH]cn1)[C@@H](C)O)[C@@H](C)O)C(C)C)C(=O)N[C@@H](C)C(=O)N[C@@H](Cc1c[nH]c2ccccc12)C(=O)N[C@@H](CC(C)C)C(=O)N[C@@H](CC(C)C)C(=O)N[C@@H](CCCCNC(=O)CC[C@H](NC(=O)CC[C@H](NC(=O)CC[C@H](NC(=O)CC[C@H](NC(=O)CCCCCCCCCCCCCCCCC(=O)O)C(=O)O)C(=O)O)C(=O)O)C(=O)O)C(=O)N[C@H](C(N)=O)[C@@H](C)O` [Example 6, N^ε34-[(4S)-4-carboxy-4-[[(4S)-4-carboxy-4-[[(4S)-4-carboxy-4-[[(4S)-4-carboxy-4-(17-carboxyheptadecanoylamino)butanoyl]amino]butanoyl]amino]butanoyl]amino]butanoyl]-[Imp7,Aib8,His9,Lys18,Glu22,Arg26,Leu33,Thr35]-GLP-1-(7-35)-peptide amide] (Desaminohistidyl-[Aib]HGTFTSDVSKYLEEQAAREFIAWLLK([γGlu-γGlu-γGlu-γGlu-C18 diacid])T-NH2), the IC50 came out at 0.3 nM.

On to `CC[C@H](C)[C@H](NC(=O)[C@H](Cc1ccccc1)NC(=O)[C@H](CCC(=O)O)NC(=O)[C@H](CCCNC(=N)N)NC(=O)[C@H](C)NC(=O)[C@H](C)NC(=O)[C@H](CCC(N)=O)NC(=O)[C@H](CCC(=O)O)NC(=O)[C@H](CCC(=O)O)NC(=O)[C@H](CC(C)C)NC(=O)[C@H](Cc1ccc(O)cc1)NC(=O)[C@H](CCCNC(=N)N)NC(=O)[C@H](CO)NC(=O)[C@@H](NC(=O)[C@H](CC(=O)O)NC(=O)[C@H](CO)NC(=O)[C@@H](NC(=O)[C@H](Cc1ccccc1)NC(=O)[C@@H](NC(=O)CNC(=O)[C@H](Cc1c[nH]cn1)NC(=O)C(C)(C)NC(=O)CCc1c[nH]cn1)[C@@H](C)O)[C@@H](C)O)C(C)C)C(=O)N[C@@H](C)C(=O)N[C@@H](Cc1c[nH]c2ccccc12)C(=O)N[C@@H](CC(C)C)C(=O)N[C@@H](CC(C)C)C(=O)N[C@@H](CCCCNC(=O)CNC(=O)[C@H](CO)NC(=O)[C@H](CCC(=O)O)NC(=O)CNC(=O)[C@H](CO)NC(=O)CC[C@H](NC(=O)CC[C@H](NC(=O)CCCCCCCCCCCCCCCCC(=O)O)C(=O)O)C(=O)O)C(=O)N[C@H](C(N)=O)[C@@H](C)O` [Example 7, N^ε34-[2-[[(2S)-2-[[(2S)-4-carboxy-2-[[2-[[(2S)-2-[[(4S)-4-carboxy-4-[[(4S)-4-carboxy-4-(17-carboxyheptadecanoylamino)butanoyl]amino]butanoyl]amino]-3-hydroxypropanoyl]amino]acetyl]amino]butanoyl]amino]-3-hydroxypropanoyl]amino]acetyl]-[Imp7,Aib8,His9,Arg18,Glu22,Arg26,Leu33,Thr35]-GLP-1-(7-35)-peptide amide] (I: Desaminohistidyl-[Aib]HGTFTSDVSRYLEEQAAREFIAWLLKT-NH2 / II: {C18 diacid-γGlu-γGlu}-SGESG; amide I:27-II:C), for which the IC50 came out at 0.5 nM.

Turning to `CC[C@H](C)[C@H](NC(=O)[C@H](Cc1ccccc1)NC(=O)[C@H](CCC(=O)O)NC(=O)[C@H](CCCNC(=N)N)NC(=O)[C@H](C)NC(=O)[C@H](C)NC(=O)[C@H](CCC(N)=O)NC(=O)CNC(=O)[C@H](CCC(=O)O)NC(=O)[C@H](CC(C)C)NC(=O)[C@H](Cc1ccc(O)cc1)NC(=O)[C@H](CCCNC(=N)N)NC(=O)[C@H](CO)NC(=O)[C@@H](NC(=O)[C@H](CC(=O)O)NC(=O)[C@H](CO)NC(=O)[C@@H](NC(=O)[C@H](Cc1ccccc1)NC(=O)[C@@H](NC(=O)CNC(=O)[C@H](Cc1c[nH]cn1)NC(=O)C(C)(C)NC(=O)CCc1c[nH]cn1)[C@@H](C)O)[C@@H](C)O)C(C)C)C(=O)N[C@@H](C)C(=O)N[C@@H](Cc1c[nH]c2ccccc12)C(=O)N[C@@H](CC(C)C)C(=O)N[C@@H](CC(C)C)C(=O)N[C@@H](CCCCNC(=O)CNC(=O)[C@H](CO)NC(=O)[C@H](CCC(=O)O)NC(=O)CNC(=O)[C@H](CO)NC(=O)CC[C@H](NC(=O)CC[C@H](NC(=O)CCCCCCCCCCCCCCCCC(=O)O)C(=O)O)C(=O)O)C(=O)N[C@H](C(N)=O)[C@@H](C)O` [Example 8, N^ε34-[2-[[(2S)-2-[[(2S)-4-carboxy-2-[[2-[[(2S)-2-[[(4S)-4-carboxy-4-[[(4S)-4-carboxy-4-(17-carboxyheptadecanoylamino)butanoyl]amino]butanoyl]amino]-3-hydroxypropanoyl]amino]acetyl]amino]butanoyl]amino]-3-hydroxypropanoyl]amino]acetyl]-[Imp7,Aib8,His9,Arg18,Arg26,Leu33,Thr35]-GLP-1-(7-35)-peptide amide] (I: Desaminohistidyl-[Aib]HGTFTSDVSRYLEGQAAREFIAWLLKT-NH2 / II: {C18 diacid-γGlu-γGlu}-SGESG; amide I:27-II:C), the IC50 was 0.9 nM.

The record behind these values is patent US9988430B2, “Stable GLP-1 based GLP-1/glucagon receptor co-agonists” (Novo Nordisk A/S, priority 2014, dated 2018).
